Key:
Format in all cases: cell-based
[1] = system: B. thailandensis E264; set-up: key: —: No effect (i.e. no significant difference between control [culture with no peptide] and culture with peptide); *: ~1 log effect (i.e. culture with peptide that's growth was ~1 log less than control); **: 1-2 log effect; ***: 2-4 log effect; ****: >4 log effect; “”: “Immediate effect” (i.e. loss of growth by at least 1 log compared to control immediately on addition of peptide [T = 0])
[2] = system: Y. pseudotuberculosis IP32593; set-up: key: —: No effect (i.e. no significant difference between control [culture with no peptide] and culture with peptide); *: ~1 log effect (i.e. culture with peptide that's growth was ~1 log less than control); **: 1-2 log effect; ***: 2-4 log effect; ****: >4 log effect; “”: “Immediate effect” (i.e. loss of growth by at least 1 log compared to control immediately on addition of peptide [T = 0])
[3] = system: F. novicida U112; set-up: key: —: No effect (i.e. no significant difference between control [culture with no peptide] and culture with peptide); *: ~1 log effect (i.e. culture with peptide that's growth was ~1 log less than control); **: 1-2 log effect; ***: 2-4 log effect; ****: >4 log effect; “”: “Immediate effect” (i.e. loss of growth by at least 1 log compared to control immediately on addition of peptide [T = 0])
[4] = system: F. tularensis LVS; set-up: key: —: No effect (i.e. no significant difference between control [culture with no peptide] and culture with peptide); *: ~1 log effect (i.e. culture with peptide that's growth was ~1 log less than control); **: 1-2 log effect; ***: 2-4 log effect; ****: >4 log effect; “”: “Immediate effect” (i.e. loss of growth by at least 1 log compared to control immediately on addition of peptide [T = 0])
[5] = system: S. aureus ATCC29213; assay: Viable count (CFU/ml) time-kill assay of peptides with bacteria; conditions: 102 μg/ml peptide, 37° C., growth versus PBS control

With GIGKFLHSAKKFGKAFVGEIMNS [Magainin II] the “Effect of peptides after 4 hours incubation with bacteria: B. thailandensis E264” value [1] was “—”, the “Effect of peptides after 4 hours incubation with bacteria: Y. pseudotuberculosis IP32593” value [2] was “—” and the “Effect of peptides after 4 hours incubation with bacteria: F. novicida U112” value [3] was “—”. The “Effect of peptides after 4 hours incubation with bacteria: F. tularensis LVS” value [4] was “—” and the “Effect of peptides after 4 hours incubation with bacteria: S. aureus ATCC29213” value [5] was “**** (>4 log effect)”.

— US20110237500A1, “CECROPIN-MAGAININ HYBRID PEPTIDES” (priority 2008, published 2011)
